From publication PMC8069799, “Alpha-Glucosidase Inhibitory Diterpenes from Euphorbia antiquorum Growing in Vietnam” (Molecules, 2021)

Key:
[1] = molecular target: Saccharomyces cerevisiae α-glucosidase (E.C 3.2.1.20); test: Alpha-glucosidase inhibition assay; format: biochemical; conditions: 0.2 U/mL enzyme, 5.0 mM pNPG, pH 6.9 sodium phosphate buffer, 37 °C, triplicate; read-out: Alpha-glucosidase inhibitory activity IC50
Method: The alpha-glucosidase (0.2 U/mL) and substrate (5.0 mM pNPG) were dissolved in 100 mM pH 6.9 sodium phosphate buffer. The inhibitor (50 µL) was preincubated with alpha-glucosidase at 37 °C for 20 min, and then the substrate (40 µL) was added to the reaction mixture. The enzymatic reaction was carried out at 37 °C for 20 min and stopped by adding 0.2 M Na2CO3 (130 μL). Enzymatic activity was quantified by measuring absorbance at 405 nm (CLARIOstar plus, BMG LABTECH, Ortenberg, Germany). All samples were analyzed in triplicate at five different concentrations around the IC50 values, and the mean values were retained. The inhibition percentage (%) was calculated by the following equation:Inhibition (%) = [1 − (Asample/Acontrol)] × 100.(1)

alpha-glucosidase = test: Inhibitory type assay of 3 on alpha-glucosidase (Lineweaver–Burk plots, secondary plots); format: biochemical, yeast
Method: In order to examine the inhibition mechanism of 3, their activity was measured at the different concentration of 4-nitrophenyl […] (pNPG).
The mechanisms of inhibition of alpha-glucosidase by 3 were determined by Lineweaver–Burk plots (Microsoft Excel 2010, Redmond, WA, USA), using methods similar to those reported in the literature. Enzyme inhibition due to various concentrations of the 3 were evaluated by monitoring the effects of different concentrations of the substrate. For Lineweaver–Burk double reciprocal plots 1/enzyme velocity (1/V) vs. 1/substrate concentration (1/[S]), the inhibition type was determined using various concentrations of pNPG (1 mM, 2 mM, and 4 mM) as a substrate in the presence of different concentrations of the test compound (0, 13.8, 27.7, and 55.5 µM). The experiments were carried out in three replicates. The mixtures were incubated at 37 °C and the optical density was measured at 405 nm every 1 min for 30 min with the Clariostar Labtech microplate reader (Ortenberg, Germany). Optimal concentrations of the tested compound were chosen based on the IC50 value. The inhibition constants were obtained graphically from secondary plots (Microsoft Excel 2010, Redmond, WA, USA).

Row | Structure (SMILES) | IC50 [1] [µM] | inhibition type (alpha-glucosidase; Lineweaver–Burk plots, Vmax decreased while Km remained constant) | Ki (alpha-glucosidase; pNPG 1, 2, 4 mM, inhibitor 0, 13.8, 27.7, 55.5 µM, secondary plot of slope vs. inhibitor concentration, read-out: inhibition constant (Ki)) [µM]
1 | CC1(C)C(O)CC(O)C2(C)C3CC4CCC3(CCC12)CC4(O)CO (single isomer, unassigned; ent-1) [Compound 1, ent-1α,3α,16β,17-tetrahydroxyatisane] | 125 | – | –
2 | CCOC(=O)CC[C@]1(C)[C@@H](C(C)(C)O)CC[C@@]23CC[C@@H](C[C@H]21)[C@](O)(CO)C3 (single isomer, unassigned; ent-3) [Compound 2, ethyl ent-3,4-seco-4,16β,17-trihydroxyatisane-3-carboxylate] | 131 | – | –
3 | CC(=O)O[C@H]1CC[C@@]2(C)C3C[C@@H]4CC[C@@]3(CC[C@@H]2C1(C)C)C[C@@]4(O)CO (single isomer, unassigned; ent-3) [Compound 4, ent-3α-acetoxy-16β,17-dihydroxyatisane] | 102 | – | –
4 | CC1(C)OC[C@@]2(C[C@]34CC[C@H]2C[C@H]3[C@]2(C)CCC(=O)C(C)(C)[C@H]2CC4)O1 [Compound 3, ent-atisane-3-oxo-16β,17-acetonide] | 69.6 | noncompetitive inhibitor | 65.8
5 | CC1(C)C(=O)CC[C@@]2(C)[C@H]1CC[C@@]13C[C@H](CC[C@@H]12)[C@@](O)(CO)C3 [Compound 6, calliterpenone] | 156 | – | –
6 | CC(=O)OC1C(C)C(=O)C23CC(C)C(O)C2(C=C(C)C(O)C(O)C2C1C2(C)C)O3 (centres unmarked) [Compound 7, ingol 12-acetate] | 115 | – | –
